Values quoted from earlier work in patent publication US20060073479A1 (priority 2001, published 2006).

Tests used:
[1] = urine and feces
[2] = target: CYP3A4 (Homo sapiens, UniProt P08684); conditions: in vitro studies
[3] = target: T1, CYP2C8 (Homo sapiens, UniProt P10632); conditions: in vitro studies
T1 sequence (P10632 1-490): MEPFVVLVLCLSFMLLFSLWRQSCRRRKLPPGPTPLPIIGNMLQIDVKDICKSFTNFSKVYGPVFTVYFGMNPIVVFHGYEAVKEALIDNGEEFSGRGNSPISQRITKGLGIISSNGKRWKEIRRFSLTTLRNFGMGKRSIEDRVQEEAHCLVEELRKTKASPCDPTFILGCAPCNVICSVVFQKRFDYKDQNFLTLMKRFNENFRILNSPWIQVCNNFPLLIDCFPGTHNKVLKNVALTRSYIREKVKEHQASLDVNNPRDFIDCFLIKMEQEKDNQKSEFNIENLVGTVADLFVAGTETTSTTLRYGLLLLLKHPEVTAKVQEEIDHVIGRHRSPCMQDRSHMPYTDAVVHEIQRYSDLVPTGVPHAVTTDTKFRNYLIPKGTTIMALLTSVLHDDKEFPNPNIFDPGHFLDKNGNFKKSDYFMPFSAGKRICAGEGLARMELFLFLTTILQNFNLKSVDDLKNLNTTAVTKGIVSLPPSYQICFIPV

[4] = system: patients treated with paclitaxel; conditions: in vivo

CYP3A4, sequence (P08684 whole entry): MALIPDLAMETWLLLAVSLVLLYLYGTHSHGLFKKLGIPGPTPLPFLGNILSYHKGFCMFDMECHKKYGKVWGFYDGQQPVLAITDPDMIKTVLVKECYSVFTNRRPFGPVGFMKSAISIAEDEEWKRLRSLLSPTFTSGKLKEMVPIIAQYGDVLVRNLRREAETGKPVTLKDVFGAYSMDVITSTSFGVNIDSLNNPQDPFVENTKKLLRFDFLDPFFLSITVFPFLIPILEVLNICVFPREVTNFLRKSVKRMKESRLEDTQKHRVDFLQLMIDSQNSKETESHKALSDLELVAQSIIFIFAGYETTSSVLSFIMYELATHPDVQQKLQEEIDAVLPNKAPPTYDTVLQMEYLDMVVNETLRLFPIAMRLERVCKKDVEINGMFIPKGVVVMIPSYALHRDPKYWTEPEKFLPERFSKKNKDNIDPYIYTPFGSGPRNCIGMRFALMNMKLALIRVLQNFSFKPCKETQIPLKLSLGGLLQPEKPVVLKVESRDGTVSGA

## N.N.O=C([O-])C1(C(=O)[O-])CCC1.[Pt+2] [carboplatin]
[1]
  metabolism / excretion in words: relatively stable and excreted largely in unchanged form in the urine

## CC(=O)O[C@H]1C(=O)[C@@]2(C)[C@H]([C@H](OC(=O)c3ccccc3)[C@]3(O)C[C@H](OC(=O)[C@H](O)[C@@H](NC(=O)c4ccccc4)c4ccccc4)C(C)=C1C3(C)C)[C@]1(OC(C)=O)CO[C@@H]1C[C@@H]2O [paclitaxel]
[2]
  metabolism by CYP3A4: to a lesser extent by CYP3A4
[3]
  metabolism by CYP2C8: metabolized by CYP2C8
[4]
  fraction of treated patients refractory to beneficial effect: about one-third
